Experimental findings from patent publication US12291518B2, “Thyroid hormone receptor agonists and use thereof” (Eccogene Inc., priority 2020, dated 2025) are described below.

Broadly, the EC50 is the concentration that produces a half-maximal response.

A value given as a limit tells only on which side of the number the result lay.

Experiment [1] addresses T1, THR beta-LBD (Homo sapiens, UniProt P10828).
T1 construct: THR beta-LBD (the final concentration is 0.5 nM) was added to the 384-well assay plate; purchased Invitrogen PV4686
T1 sequence (P10828 217-461 limits assumed): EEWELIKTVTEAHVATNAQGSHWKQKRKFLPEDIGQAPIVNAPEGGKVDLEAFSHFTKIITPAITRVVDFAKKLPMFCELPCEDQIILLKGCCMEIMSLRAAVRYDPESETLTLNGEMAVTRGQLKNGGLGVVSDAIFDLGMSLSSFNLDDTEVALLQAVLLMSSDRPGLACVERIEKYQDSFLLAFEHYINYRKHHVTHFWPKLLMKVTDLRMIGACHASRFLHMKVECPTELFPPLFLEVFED
In words: THR-β Coactivator Peptide Recruitment Assay (LanthaScreen TR-FRET). It counts as biochemical. The settings on record: TR-FRET coactivator recruitment, THR beta-LBD 0.5 nM; for EC50: read-out: THRβ EC50. On the procedure: (§1) A time-resolved FRET (TR-FRET) assay was used to test representative compounds of the application.
(§2) THR-β Coactivator Peptide Recruitment Assay were conducted by using Invitrogen's LanthaScreen™ TR-FRET Thyroid Receptor beta Assay Kit (Catalog no. PV4686). Binding of an agonist to the nuclear receptor causes a subsequent binding of a coactivator peptide, resulting in fluorescence energy transfer from the labelled nuclear receptor to the proximal coactivator peptide, which reflects the binding affinity of the agonist and the nuclear receptor. The assay was conducted by following the manufacturer's instructions. Briefly, THR beta-LBD (the final concentration is 0.5 nM) was added to the 384-well assay plate containing test compounds, followed by addition of Fluorescein-SRC2-2 coactivator peptide and terbium (Tb)-labeled anti-GST antibody. The final concentration of THR beta-LBD, Fluorescein-SRC2-2 coactivator peptide and terbium (Tb)-labeled anti-GST antibody is 0.5 nM, 0.1 nM and 2 nM, respectively. After a gentle mix and incubation at room temperature for 2 h, the signal was read on the EnVision Multilabel Plate Reader at wavelengths of 520 nm and 495 nm. TR-FRET ratio was calculated by dividing the emission signal at 520 nm and the emission signal at 495 nm, and then was plotted against a sigmoidal dose response curve (four parameters, GraphPad™ Prism 8) to determine the EC50 value.
For orientation: TR-FRET usually uses a lanthanide donor and a delayed reading to cut background.

Experiment [2] concerns the target T2, THR alpha-LBD (Homo sapiens, UniProt P10827).
T2 construct: except that THR alpha-LBD of a final concentration 0.25 nM was used; purchased Invitrogen PV4687
Description: THR-α Coactivator Peptide Recruitment Assay (LanthaScreen TR-FRET). It counts as biochemical. Conditions: TR-FRET coactivator recruitment, THR alpha-LBD 0.25 nM; for EC50: read-out: THRα EC50. The procedure:
as §1, §2
THR-α Coactivator Peptide Recruitment Assay were conducted by using Invitrogen's LanthaScreen™ TR-FRET Thyroid Receptor alpha Assay Kit (Catalog no. PV4687), following the same method described above except that THR alpha-LBD of a final concentration 0.25 nM was used.

T2 sequence (P10827 163-410 isoform P10827-2 limits assumed, other chains not shown): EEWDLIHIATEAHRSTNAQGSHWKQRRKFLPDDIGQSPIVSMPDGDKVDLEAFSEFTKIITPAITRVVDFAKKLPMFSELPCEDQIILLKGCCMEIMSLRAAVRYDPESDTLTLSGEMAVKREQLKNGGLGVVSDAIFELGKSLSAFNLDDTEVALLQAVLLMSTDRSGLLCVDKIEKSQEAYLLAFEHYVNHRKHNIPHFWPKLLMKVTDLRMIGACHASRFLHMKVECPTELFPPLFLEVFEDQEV

Regarding `CNC(=O)C1(N[S@SP3](=O)(=O)c2cc(Oc3c(Cl)cc(-n4nc(C(F)(F)F)c(=O)[nH]c4=O)cc3Cl)ccc2O)CC1` [Compound 25, 1-((5-(2,6-dichloro-4-(3,5-dioxo-6-(trifluoromethyl)-4,5-dihydro-1,2,4-triazin-2(3H)-yl)phenoxy)-2-hydroxyphenyl)sulfonamido)-N-methylcyclopropane-1-carboxamide], in experiment [1], the “THRβ Emax” value is on record as “B (75~90)” and the EC50 lay in the range of 20 to 100 nM. In addition, in experiment [2], the “THRα Emax” value is “C (<40)” and the concentration giving a half-maximal response (EC50) was above 1000 nM.
For `O=C(NC12CC(NS(=O)(=O)c3cc(Oc4c(Cl)cc(-n5nc(C(F)F)c(=O)[nH]c5=O)cc4Cl)ccc3O)(C1)C2)C1CC1` [Compound 85, N-(3-((5-(2,6-dichloro-4-(6-(difluoromethyl)-3,5-dioxo-4,5-dihydro-1,2,4-triazin-2(3H)-yl)phenoxy)-2-hydroxyphenyl)sulfonamido)bicyclo[1.1.1]pentan-1-yl)cyclopropanecarboxamide] the same measures were “C (<75)”, above 100 nM, “C (<40)” and above 1000 nM.
Regarding `CNC(=O)C1(NS(=O)(=O)c2cc(Oc3c(Cl)cc(-n4nc(C(F)F)c(=O)[nH]c4=O)cc3Cl)ccc2O)CC1` [Compound 22, 1-[[5-[2,6-dichloro-4-[6-(difluoromethyl)-3,5-dioxo-1,2,4-triazin-2-yl]phenoxy]-2-hydroxy-phenyl]sulfonylamino]-N-methyl-cyclopropane carboxamide], in experiment [1], the “THRβ Emax” value is “B (75~90)” and the EC50 is 2 to 20 nM. In experiment [2], the “THRα Emax” value is recorded as “B (40~85)” and the EC50 lay in the range of 200 to 1000 nM.
For `O=c1[nH]c(=O)n(-c2cc(Cl)c(Oc3ccc(O)c(S(=O)(=O)[C@H]4C[C@@H](O)C4)c3)c(Cl)c2)nc1C(F)F` [Compound 100, 2-(3,5-dichloro-4-(4-hydroxy-3-(((1s,3s)-3-hydroxycyclobutyl)sulfonyl)phenoxy)phenyl)-6-(difluoromethyl)-1,2,4-triazine-3,5(2H,4H)-dione] the same measures were “A (90~110)”, below 2 nM, “A (85~110)” and 2 to 200 nM.
As for `O=c1[nH]c(=O)n(-c2cc(Cl)c(Cc3ccc(O)c(S(=O)(=O)N[C@H]4C[C@H](O)C4)c3)c(Cl)c2)nc1C(F)F` [Compound 97, 5-[[2,6-dichloro-4-[6-(difluoromethyl)-3,5-dioxo-1,2,4-triazin-2-yl]phenyl]methyl]-2-hydroxy-N-(3-hydroxycyclobutyl)benzenesulfonamide], in experiment [1], the “THRβ Emax” value is “A (90~110)” and the EC50 was below 2 nM. Moreover, in experiment [2], the “THRα Emax” value was “A (85~110)” and the EC50 fell in the range of 2 to 200 nM.
For `O=c1[nH]c(=O)n(-c2cc(Cl)c(Oc3cc(S(=O)(=O)NC45CCC(O)(C4)C5)c(O)cn3)c(Cl)c2)nc1C(F)F` [Compound 159, 2-(2,6-dichloro-4-(6-(difluoromethyl)-3,5-dioxo-4,5-dihydro-1,2,4-triazin-2(3H)-yl)phenoxy)-5-hydroxy-N-(4-hydroxybicyclo[2.1.1]hexan-1-yl)pyridine-4-sulfonamide] the same measures were “B (75~90)”, 20 to 100 nM, “B (40~85)” and 200 to 1000 nM.
For `N#CC1(NS(=O)(=O)c2cc(Oc3c(Cl)cc(-n4nc(C(F)F)c(=O)[nH]c4=O)cc3Cl)ccc2O)CC1` [Compound 17, N-(1-cyanocyclopropyl)-5-(2,6-dichloro-4-(6-(difluoromethyl)-3,5-dioxo-4,5-dihydro-1,2,4-triazin-2(3H)-yl)phenoxy)-2-hydroxybenzenesulfonamide] the same measures were “A (90~110)”, below 2 nM, “A (85~110)” and 2 to 200 nM.
`O=c1[nH]c(=O)n(-c2cc(Cl)c(Oc3ccc(O)c(S(=O)(=O)N[C@@H]4CCOC4)c3)c(Cl)c2)nc1C(F)F` [Compound 30, (R)-5-(2,6-dichloro-4-(6-(difluoromethyl)-3,5-dioxo-4,5-dihydro-1,2,4-triazin-2(3H)-yl)phenoxy)-2-hydroxy-N-(tetrahydrofuran-3-yl)benzenesulfonamide]: in experiment [1], the “THRβ Emax” value was “A (90~110)” and the EC50 was below 2 nM. For the same compound, in experiment [2], the “THRα Emax” value is on record as “A (85~110)” and the EC50 is below 2 nM.
For the compound `O=C(N[C@H]1C[C@@H](NS(=O)(=O)c2cc(Oc3c(Cl)cc(-n4nc(C(F)F)c(=O)[nH]c4=O)cc3Cl)ccc2O)C1)C1CC1` [Compound 86, N-((1s,3s)-3-((5-(2,6-dichloro-4-(6-(difluoromethyl)-3,5-dioxo-4,5-dihydro-1,2,4-triazin-2(3H)-yl)phenoxy)-2-hydroxyphenyl)sulfonamido)cyclobutyl) cyclopropanecarboxamide], in experiment [1], the “THRβ Emax” value is given as “C (<75)” and the EC50 lay in the range of 2 to 20 nM. For the same compound, in experiment [2], the “THRα Emax” value is listed as “C (<40)” and the concentration for a half-maximal effect (EC50) was 200 to 1000 nM.
For `O=c1[nH]c(=O)n(-c2cc(Cl)c(Oc3ccc(O)c(S(=O)(=O)N[C@@H]4CC[C@@H](O)C4)c3)c(Cl)c2)nc1C(F)F` (racemic) [Compound 75, 5-(2,6-dichloro-4-(6-(difluoromethyl)-3,5-dioxo-4,5-dihydro-1,2,4-triazin-2(3H)-yl)phenoxy)-2-hydroxy-N-((1R,3R)-3-hydroxycyclopentyl)benzenesulfonamide], in that order: “C (<75)”, 2 to 20 nM, “B (40~85)” and 200 to 1000 nM.
For `CNC(=O)CNS(=O)(=O)c1cc(Oc2c(Cl)cc(-n3nc(C(F)F)c(=O)[nH]c3=O)cc2Cl)ccc1O` [Compound 60, 2-((5-(2,6-dichloro-4-(6-(difluoromethyl)-3,5-dioxo-4,5-dihydro-1,2,4-triazin-2(3H)-yl)phenoxy)-2-hydroxyphenyl)sulfonamido)-N-methylacetamide] the same measures were “B (75~90)”, 2 to 20 nM, “B (40~85)” and 2 to 200 nM.
For `O=C(CNS(=O)(=O)c1cc(Oc2c(Cl)cc(-n3nc(C(F)F)c(=O)[nH]c3=O)cc2Cl)ccc1O)N1CCC1` [Compound 63, N-[2-(azetidin-1-yl)-2-oxo-ethyl]-5-[2,6-dichloro-4-[6-(difluoromethyl)-3,5-dioxo-1,2,4-triazin-2-yl]phenoxy]-2-hydroxy-benzenesulfonamide], in that order: “B (75~90)”, 20 to 100 nM, “B (40~85)” and above 1000 nM.
For the compound `O=c1[nH]c(=O)n(-c2cc(Cl)c(Oc3ccc(O)c(S(=O)(=O)N[C@@H]4CC[C@H](O)C4)c3)c(Cl)c2)nc1C(F)F` [Compound 66, 5-(2,6-dichloro-4-(6-(difluoromethyl)-3,5-dioxo-4,5-dihydro-1,2,4-triazin-2(3H)-yl)phenoxy)-2-hydroxy-N-((1R,3S)-3-hydroxycyclopentyl)benzenesulfonamide], in experiment [1], the “THRβ Emax” value is on record as “C (<75)” and the half-maximal effective concentration (EC50) fell in the range of 2 to 20 nM. In addition, in experiment [2], the “THRα Emax” value is listed as “B (40~85)” and the EC50 was 2 to 200 nM.
For `O=c1[nH]c(=O)n(-c2cc(Cl)c(Oc3cc(S(=O)(=O)N4CC[C@H](O)C4)c(O)cn3)c(Cl)c2)nc1C(F)F` [Compound 108, (S)-2-(3,5-dichloro-4-((5-hydroxy-4-((3-hydroxypyrrolidin-1-yl)sulfonyl)pyridin-2-yl)oxy)phenyl)-6-(difluoromethyl)-1,2,4-triazine-3,5(2H,4H)-dione] the same measures were “B (75~90)”, 2 to 20 nM, “B (40~85)” and 2 to 200 nM.
With `O=c1[nH]c(=O)n(-c2cc(Cl)c(Oc3ccc(O)c(S(=O)(=O)N4CCNCC4)c3)c(Cl)c2)nc1C(F)F` [Compound 31, 2-(3,5-dichloro-4-(4-hydroxy-3-(piperazin-1-ylsulfonyl)phenoxy)phenyl)-6-(difluoromethyl)-1,2,4-triazine-3,5(2H,4H)-dione], in experiment [1], the “THRβ Emax” value is “C (<75)” and the 50% effective concentration (EC50) lay within 2 to 20 nM. In experiment [2], the “THRα Emax” value is “B (40~85)” and the EC50 fell in the range of 2 to 200 nM.
